In brackets after ≈: the same amount, converted by molar mass. Read-outs that look alike come from different tables or passages of the source.
What was measured:
TRPC6 channel = molecular target: T1, TRPC6 channel (Homo sapiens, UniProt Q9Y210); assay: Ion channel profiling at Charles River: TRPC6; format: cell-based; conditions: expressed in HEK293 cells; read-out: ESTIMATED IC50
T1 construct: host or cells: HEK293 cells
Experimental: (§1) 1.4.3 Ion Channel Profiling at Charles River
(§2) Table S9. Compound 24 was tested against the following ion channels at Charles River Laboratories. […]
ScreenPatch Assay Kv1.3 potassium channel (human KCNA3 gene) expressed in CHO […]
(§3) FLIPR Assay expressed in HEK293 cells
GABAA α5/β3/γ2 ionotropic receptor (human GABRA5, GABRB3, >30 and GABRG2 genes, expressed in HEK293 cells […]
TRPC6 channel (human TRPC6 gene) expressed in HEK293 cells >30 […]
(§4) An increase in the number of colonies of at least two-fold over baseline (mean + SD of the vehicle control) and a dose response indicate a positive response. An […]
(§5) different from the vehicle control.
(§6) Where indicated, S9 fraction from the livers of Aroclor 1254-treated rats were included in the incubation at a final concentration of 4.5%. A NADPH-regenerating system was also included to ensure a steady supply of reducing equivalents.

[1] = molecular target: T2, CFTR cystic fibrosis transmembrane conductance regulator (Homo sapiens, UniProt P13569); assay: Ion channel profiling at Charles River: CFTR; format: cell-based; conditions: expressed in CHO cells; read-out: ESTIMATED IC50
T2 construct: host or cells: CHO cells
Experimental: as §1, §2
FASTPatch Assay IK (KCa3.1) calcium-activated potassium channel (human KCNN4 >30 gene) expressed in CHO cells […]
CFTR cystic fibrosis transmembrane conductance regulator (Cl-channel encoded by human CFTR gene) expressed in CHO cells >30 […]
as §3
(§7) GABAA α5/β3/γ2 ionotropic receptor (human GABRA5, GABRB3, >30 and GABRG2 genes, expressed in HEK293 cells

[2] = molecular target: T3, Nav1.5 human sodium ion channel (Homo sapiens, UniProt Q14524); assay: Nav1.5 automated patch clamp CiPA assay (Eurofins); format: cell-based
T3 construct: Eurofins CYL8004QP2DR
Experimental: 1.4.2 Further functional off-target assays (Eurofins)
Table S8. Compound 24 was further tested in the following functional assays at Eurofins.
ASSAY NAME ESTIMATED IC50 [µM] […]
Nav1.5 human sodium ion channel cell based automated patch clamp >30 µM
CiPA assay (CYL8004QP2DR) […]
as §3
(§8) GABAA α5/β3/γ2 ionotropic receptor (human GABRA5, GABRB3, >30
(§9) and GABRG2 genes, expressed in HEK293 cells

[3] = Plasma protein binding, murine (equilibrium dialysis); format: in vitro ADME, mouse
Experimental: (§10) 1.4.4 Pharmacokinetic and off-target functional assays (Cyprotex)
(§11) Compound 24 was assayed at Cyprotex in functional assays for interference with important off-targets as well as important pharmacokinetic parameters. With the exception of plasma protein binding, a dose-response relationship was studied in order to calculate IC50 values.
(§12) Table S10. Information on in vitro ADMET assays performed at Cyprotex. […]
Plasma protein binding assay (human and Equilibrium dialysis […]
as §4, §5, §6

[4] = Apparent permeability in Calu-3 cell line; format: in vitro ADME; conditions: human; air–liquid interface
[5] = molecular target: T4, hKv1.5 potassium channels (Homo sapiens, UniProt P22460); assay: Ion channel profiling at Charles River: hKv1.5; format: cell-based
T4 construct: host or cells: CHO cells
Experimental: as §1, §2
FASTPatch Assay IK (KCa3.1) calcium-activated potassium channel (human KCNN4 >30 gene) expressed in CHO cells
Cloned hKv1.5 potassium channels (encoded by the human 32.6
KCNA5 gene, expressed in CHO cells) […]
as §3, §7

CYP2D6 = molecular target: T5, CYP2D6 (Homo sapiens, UniProt P10635); assay: Cytochrome P450 inhibition assay, CYP2D6; format: in vitro ADME; conditions: Metabolic activity
T5 construct: Cyprotex
Experimental: as §10, §11, §12, §4, §5, §6

[6] = Kinetic turbidimetric aqueous solubility; conditions: PBS buffer, kinetic from dmso stock
ENaC channel = molecular target: T6, ENaC channel (Homo sapiens, UniProt P37088+P51168+P51170); assay: Ion channel profiling at Charles River: ENaC; format: cell-based
T6 construct: host or cells: HEK293 cells
Experimental: as §1
Table S9. Compound 24 was tested against the following ion channels at Charles River Laboratories.
ASSAY TYPE ION CHANNEL AND EXPRESSION SYSTEM ESTIMATED […]
ScreenPatch Assay Kv1.3 potassium channel (human KCNA3 gene) expressed in CHO
ENaC channel (human SCNN1A, SCNN1B and SCNN1G genes, >30
as §3, §8, §9

[7] = tested on: P. aeruginosa strain ATCC 27853; assay: Neutropenic thigh infection model in mice
Experimental: Figure S6. AUC levels after IV and IT administration
1.4.8 In vivo thigh infection model with P. aeruginosa
Male, 6 weeks-old, CD -1 mice (Charles River, Netherlands) were rendered neutropenic by administration of 150 mg/kg and 100 mg/kg cyclophosphamide i.p. on day –4, –1 and +1, respectively. The P. aeruginosa strain ATCC 27853 was used. The inoculum was prepared as follows: on day –1 the P. aeruginosa strain was streaked out onto a blood agar plate and incubated at 37 °C.
Then one sing le colony was inoculated into MHB medium (diluted 1:2 in water) and incubated at 120 rpm and 37 °C. […]
PBS. Then they were adjusted to an OD of 1 and diluted 1:5000 in PBS. The inoculum was plated onto MHB agar plates in serial dilutions and incubated at 37 °C. Mice were grouped into the following (n=18 for each group): (1) baseline inoculum group, sacrificed 2 h post infection; (2) vehicle control group (receiving vehicle t= 2, 12, 24 and 36 h post infection as well as 20 mg/kg tramadol SC t= 0 and 24 h post infection); (3) tobramycin group I (8 mg/kg tobramycin IV at t= 2 and 24 h post infection); (4) tobramycin group II (1 mg/kg tobramycin IV at t= 2 and 24 h post infection); (5) 24 group (30 mg/kg 24 SC at t=2, 12, 24 and 36 h post infection); (6) 24 + tobramycin group (30 mg/kg 24 SC at t=2, 12, 24 and 36 h and tobramycin 1 mg/kg IV at t= 2 and 24 h post infection). On the day of infection (day 0), mice received 30 µL of the P. aeruginosa strain ATCC 27853 into each lateral thigh (inoculum:
1x10^5 cfu/mL). 48 h after infection, mice were euthanized, blood was removed from the heart, lung and thighs were aseptically removed. […]
homogenized in 0.9% NaCl-solution and plated onto MHB agar plates in duplicate in serial dilutions and incubated at 37 °C for 24 h. Blood, lung and thighs were also subjected to LC-MS/MS analysis.
Figure S8. Plasma and lung-tissue levels after the in vivo infection model.

CYP2C9 = molecular target: T7, CYP2C9 (Homo sapiens, UniProt P11712); assay: Cytochrome P450 inhibition assay, CYP2C9; format: in vitro ADME; conditions: Metabolic activity
T7 construct: Cyprotex
Experimental: as §10, §11, §12, §4, §5, §6

CYP3A4 = molecular target: T8, CYP3A4 (Homo sapiens, UniProt P08684); assay: Cytochrome P450 inhibition assay, CYP3A4; format: in vitro ADME
T8 construct: Cyprotex
Experimental: as §10, §11, §12, §4, §5, §6

T4 sequence (P22460 whole entry): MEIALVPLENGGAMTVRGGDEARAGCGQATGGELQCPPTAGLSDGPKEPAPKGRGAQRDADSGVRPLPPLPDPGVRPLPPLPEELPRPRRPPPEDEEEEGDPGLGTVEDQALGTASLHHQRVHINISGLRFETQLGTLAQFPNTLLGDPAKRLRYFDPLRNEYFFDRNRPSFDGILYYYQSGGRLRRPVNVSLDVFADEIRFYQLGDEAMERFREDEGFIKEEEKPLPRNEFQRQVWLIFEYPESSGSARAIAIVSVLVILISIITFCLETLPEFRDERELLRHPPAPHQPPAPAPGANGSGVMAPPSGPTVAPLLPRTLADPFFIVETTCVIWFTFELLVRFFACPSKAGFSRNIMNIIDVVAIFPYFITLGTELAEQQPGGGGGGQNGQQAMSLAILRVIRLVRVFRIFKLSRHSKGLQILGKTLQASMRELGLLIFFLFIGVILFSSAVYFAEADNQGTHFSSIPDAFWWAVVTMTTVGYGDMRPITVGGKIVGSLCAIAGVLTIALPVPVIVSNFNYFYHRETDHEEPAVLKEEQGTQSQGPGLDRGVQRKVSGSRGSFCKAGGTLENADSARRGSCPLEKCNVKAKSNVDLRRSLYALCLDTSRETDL
T8 sequence (P08684 whole entry): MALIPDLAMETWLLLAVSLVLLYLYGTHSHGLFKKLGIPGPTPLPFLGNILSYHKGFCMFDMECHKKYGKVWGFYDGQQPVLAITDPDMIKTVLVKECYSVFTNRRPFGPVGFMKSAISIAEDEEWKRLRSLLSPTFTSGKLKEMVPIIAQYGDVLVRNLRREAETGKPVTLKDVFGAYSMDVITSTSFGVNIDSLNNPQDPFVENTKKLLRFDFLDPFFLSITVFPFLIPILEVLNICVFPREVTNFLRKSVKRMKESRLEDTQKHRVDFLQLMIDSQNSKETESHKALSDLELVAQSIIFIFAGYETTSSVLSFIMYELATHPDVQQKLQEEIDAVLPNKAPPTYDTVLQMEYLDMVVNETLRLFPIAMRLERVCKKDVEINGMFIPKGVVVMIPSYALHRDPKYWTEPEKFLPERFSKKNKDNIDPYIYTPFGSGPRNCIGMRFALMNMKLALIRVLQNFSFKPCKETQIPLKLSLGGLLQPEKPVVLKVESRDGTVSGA
T1 sequence (Q9Y210 whole entry): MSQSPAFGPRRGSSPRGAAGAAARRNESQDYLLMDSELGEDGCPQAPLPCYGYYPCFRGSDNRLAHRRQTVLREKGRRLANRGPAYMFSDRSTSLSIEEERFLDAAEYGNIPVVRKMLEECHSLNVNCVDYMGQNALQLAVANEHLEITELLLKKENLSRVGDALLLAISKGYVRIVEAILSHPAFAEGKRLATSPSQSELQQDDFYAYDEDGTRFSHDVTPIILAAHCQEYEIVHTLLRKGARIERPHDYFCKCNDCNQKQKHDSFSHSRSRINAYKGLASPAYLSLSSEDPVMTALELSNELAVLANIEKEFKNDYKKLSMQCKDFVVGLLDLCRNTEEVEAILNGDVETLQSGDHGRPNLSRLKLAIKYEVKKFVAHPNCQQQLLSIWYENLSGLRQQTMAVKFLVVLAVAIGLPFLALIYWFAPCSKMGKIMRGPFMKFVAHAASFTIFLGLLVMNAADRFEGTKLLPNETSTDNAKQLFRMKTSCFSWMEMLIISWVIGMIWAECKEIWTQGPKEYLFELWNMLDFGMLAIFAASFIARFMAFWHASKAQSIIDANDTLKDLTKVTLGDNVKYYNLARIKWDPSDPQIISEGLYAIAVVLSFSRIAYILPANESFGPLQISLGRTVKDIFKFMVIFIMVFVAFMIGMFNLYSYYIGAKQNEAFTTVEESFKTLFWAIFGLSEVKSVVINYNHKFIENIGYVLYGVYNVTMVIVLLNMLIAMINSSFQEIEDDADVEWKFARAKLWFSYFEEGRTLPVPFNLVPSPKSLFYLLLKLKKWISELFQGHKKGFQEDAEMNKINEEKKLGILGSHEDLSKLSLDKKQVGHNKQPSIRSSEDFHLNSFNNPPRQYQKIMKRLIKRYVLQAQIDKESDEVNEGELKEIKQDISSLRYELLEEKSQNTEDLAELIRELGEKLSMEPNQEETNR
T5 sequence (P10635 whole entry): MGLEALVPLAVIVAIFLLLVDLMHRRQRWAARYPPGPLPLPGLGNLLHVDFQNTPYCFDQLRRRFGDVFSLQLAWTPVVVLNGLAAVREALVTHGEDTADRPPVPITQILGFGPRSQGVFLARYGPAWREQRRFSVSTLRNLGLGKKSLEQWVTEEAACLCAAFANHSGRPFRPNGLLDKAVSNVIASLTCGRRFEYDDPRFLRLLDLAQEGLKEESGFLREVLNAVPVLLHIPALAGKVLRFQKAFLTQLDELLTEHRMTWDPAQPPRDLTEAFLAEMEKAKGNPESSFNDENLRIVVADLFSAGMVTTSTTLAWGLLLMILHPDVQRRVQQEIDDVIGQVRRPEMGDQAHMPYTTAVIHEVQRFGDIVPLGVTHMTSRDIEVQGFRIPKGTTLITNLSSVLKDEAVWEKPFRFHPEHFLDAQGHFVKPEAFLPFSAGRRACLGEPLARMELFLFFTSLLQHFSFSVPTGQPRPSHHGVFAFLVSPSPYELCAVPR
T3 sequence (Q14524 whole entry): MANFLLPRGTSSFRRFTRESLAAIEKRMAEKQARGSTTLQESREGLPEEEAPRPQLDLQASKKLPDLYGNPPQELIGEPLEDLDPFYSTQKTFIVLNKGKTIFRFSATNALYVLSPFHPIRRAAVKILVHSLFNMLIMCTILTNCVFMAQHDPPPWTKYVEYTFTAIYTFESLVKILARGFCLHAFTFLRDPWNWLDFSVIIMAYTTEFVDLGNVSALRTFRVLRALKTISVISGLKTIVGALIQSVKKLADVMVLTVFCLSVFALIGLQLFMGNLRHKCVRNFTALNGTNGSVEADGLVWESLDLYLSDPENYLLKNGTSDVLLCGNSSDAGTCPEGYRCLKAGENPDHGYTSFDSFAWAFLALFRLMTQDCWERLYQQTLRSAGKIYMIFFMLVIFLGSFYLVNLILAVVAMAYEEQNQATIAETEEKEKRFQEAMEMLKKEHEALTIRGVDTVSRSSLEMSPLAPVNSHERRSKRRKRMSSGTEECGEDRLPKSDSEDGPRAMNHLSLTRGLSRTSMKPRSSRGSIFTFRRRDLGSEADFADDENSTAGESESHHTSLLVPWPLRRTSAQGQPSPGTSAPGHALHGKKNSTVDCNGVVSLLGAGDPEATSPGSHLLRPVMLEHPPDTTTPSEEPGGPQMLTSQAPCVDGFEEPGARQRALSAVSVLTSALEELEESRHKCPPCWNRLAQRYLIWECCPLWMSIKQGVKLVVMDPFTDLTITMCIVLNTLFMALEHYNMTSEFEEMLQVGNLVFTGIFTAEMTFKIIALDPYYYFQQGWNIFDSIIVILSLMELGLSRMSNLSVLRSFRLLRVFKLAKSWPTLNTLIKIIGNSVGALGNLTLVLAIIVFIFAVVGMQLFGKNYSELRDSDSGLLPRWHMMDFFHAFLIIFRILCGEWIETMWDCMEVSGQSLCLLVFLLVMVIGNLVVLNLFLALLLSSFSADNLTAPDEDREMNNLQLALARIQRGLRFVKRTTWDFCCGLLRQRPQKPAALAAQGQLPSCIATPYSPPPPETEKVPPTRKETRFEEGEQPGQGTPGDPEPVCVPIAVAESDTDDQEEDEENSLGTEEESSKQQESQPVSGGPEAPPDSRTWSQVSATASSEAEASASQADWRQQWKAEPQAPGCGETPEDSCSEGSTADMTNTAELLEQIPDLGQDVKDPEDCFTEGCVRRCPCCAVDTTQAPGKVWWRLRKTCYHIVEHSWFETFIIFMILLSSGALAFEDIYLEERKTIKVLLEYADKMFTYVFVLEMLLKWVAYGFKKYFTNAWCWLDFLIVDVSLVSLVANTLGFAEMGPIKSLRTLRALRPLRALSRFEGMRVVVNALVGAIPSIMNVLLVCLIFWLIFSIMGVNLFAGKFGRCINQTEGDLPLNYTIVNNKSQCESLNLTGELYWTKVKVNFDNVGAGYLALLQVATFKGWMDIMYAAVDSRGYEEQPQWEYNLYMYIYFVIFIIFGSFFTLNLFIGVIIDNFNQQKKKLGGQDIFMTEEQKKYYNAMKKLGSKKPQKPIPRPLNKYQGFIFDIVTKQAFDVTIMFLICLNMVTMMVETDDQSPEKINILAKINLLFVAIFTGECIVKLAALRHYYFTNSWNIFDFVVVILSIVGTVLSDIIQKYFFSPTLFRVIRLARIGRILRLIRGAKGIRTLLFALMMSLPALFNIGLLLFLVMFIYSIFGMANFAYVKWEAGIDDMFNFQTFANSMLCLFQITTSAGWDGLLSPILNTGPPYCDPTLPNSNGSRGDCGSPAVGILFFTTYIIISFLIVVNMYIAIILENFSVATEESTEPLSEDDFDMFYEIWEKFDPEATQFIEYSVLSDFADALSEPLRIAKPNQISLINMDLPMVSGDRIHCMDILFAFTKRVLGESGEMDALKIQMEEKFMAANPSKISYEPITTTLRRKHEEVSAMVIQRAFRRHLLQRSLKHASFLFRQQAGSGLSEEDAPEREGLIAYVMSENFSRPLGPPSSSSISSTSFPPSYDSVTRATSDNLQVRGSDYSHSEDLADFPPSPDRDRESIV
T7 sequence (P11712 whole entry): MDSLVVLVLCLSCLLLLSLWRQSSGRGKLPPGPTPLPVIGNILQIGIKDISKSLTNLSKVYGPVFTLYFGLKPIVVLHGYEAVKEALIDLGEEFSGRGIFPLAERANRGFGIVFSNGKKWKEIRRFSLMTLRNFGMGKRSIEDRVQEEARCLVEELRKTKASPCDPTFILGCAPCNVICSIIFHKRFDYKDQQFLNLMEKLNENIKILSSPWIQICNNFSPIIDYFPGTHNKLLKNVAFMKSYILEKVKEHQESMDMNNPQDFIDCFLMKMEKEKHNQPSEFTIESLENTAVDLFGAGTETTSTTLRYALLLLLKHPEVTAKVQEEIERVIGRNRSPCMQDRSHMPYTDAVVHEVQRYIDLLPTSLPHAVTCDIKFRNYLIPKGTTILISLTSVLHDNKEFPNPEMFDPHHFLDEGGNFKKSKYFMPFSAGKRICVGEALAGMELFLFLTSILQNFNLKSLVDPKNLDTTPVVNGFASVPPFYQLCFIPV

CC(C)Oc1ccc(-c2ncc(CNc3ccnc(C(F)(F)F)c3)cn2)cc1Cl [Compound 24]
IC50 (TRPC6 channel): > 30 µM
IC50 [1]: > 30 µM
IC50 [2]: > 30 µM
Plasma binding murine [3]: >99%
Papp at 4 h [4]: 3.1 ± 0.28 ×10⁻⁶ cm/s
IC50 ([5]; expressed in CHO cells, read-out: ESTIMATED IC50): 32.6 µM
IC50 ([5]; read-out: hKv1.5 functional inhibition IC50): ~30 µM
IC50 (CYP2D6): > 25 µM
solubility kinetic at 5 min [6]: 47.2 µM (≈ 20 µg/mL)
IC50 (ENaC channel): > 30 µM
bacterial burden in the muscle compared to all other groups ([7]; 24 30 mg kg^−1 SC combined with low dose tobramycin 1 mg kg^−1 IV, 48 h, p < 0.001): significantly reduced bacterial burden
bacterial burden, secondary site of infection (lung), dissemination ([7]; 24 30 mg/kg SC combined with low tobramycin dose 1 mg/kg IV, 48 h): detectable inhibition of dissemination
CFU reduction over vehicle, primary infection site (thigh muscle) ([7]; 24 alone, 30 mg/kg SC at 2, 12, 24 and 36 h p.i., 48 h): did not exert significant effects
bacterial burden, secondary site of infection (lung), dissemination ([7]; 24 alone, 30 mg/kg SC, 48 h): did not show a significant effect
IC50 (CYP2C9): > 25 µM
IC50 (CYP3A4; Metabolic activity, activation observed): > 25 µM
CYP3A4 activation (CYP3A4; at 10 × 10^−6 M): > 50%

NC[C@H]1O[C@H](O[C@H]2[C@H](O)[C@@H](O[C@H]3O[C@H](CO)[C@@H](O)[C@H](N)[C@H]3O)[C@H](N)C[C@@H]2N)[C@H](N)C[C@@H]1O [Tobramycin, tobramycin]
terminal level in plasma and lung tissue (LC–MS/MS) ([7]; 48 h after infection): did not detect any
CFU reduction over vehicle, primary infection site (thigh muscle) ([7]; tobramycin high, 8 mg/kg IV at 2 and 24 h p.i., 48 h): did not exert significant effects
bacterial burden, secondary site of infection (lung), dissemination ([7]; tobramycin high, 8 mg/kg IV, 48 h): did not reach significance
CFU reduction over vehicle, primary infection site (thigh muscle) ([7]; tobramycin low, 1 mg/kg IV at 2 and 24 h p.i., 48 h): did not exert significant effects
bacterial burden, secondary site of infection (lung), dissemination ([7]; tobramycin low, 1 mg/kg IV, 48 h): did not show a significant effect

Reference: publication PMC9929129, “Towards Translation of PqsR Inverse Agonists: From In Vitro Efficacy Optimization to In Vivo Proof‐of‐Principle” (Advanced Science, 2023)
